Earlier results in patent US20210060038A1, “COMPOSITIONS FOR ELIMINATING BACTERIAL PROMOTORS OF COLORECTAL CANCER BY INTRALUMINAL APPLICATION” (priority 2018, published 2021).
Like-named read-outs stand apart in the source and are kept apart here.

How the values were obtained:
[1] = not given; remark: listed apart in the source
IPEC-J2 cells = IPEC-J2 cells exposed at 580 μg/mL, within 15 minutes
[2] = in vivo
[3] = sealed sachets at room temperature
[4] = system: mouse macrophage cell line
[5] = system: Staphylococcus, Streptococcus, Enterococcus, Neisseria, Escherichia, Proteus (indole-negative), Serratia, Salmonella, Shigella, Pseudomonas, Haemophilus, and …
[6] = system: anaerobic genera Peptostreptococcus (including Peptoniphilus, Finegoldia and Anaerococcus)
[7] = system: strains of organisms from the susceptible genera
[8] = system: indole-positive Proteus spp., Klebsiella and Enterobacter spp.
Pseudomonas aeruginosa = conditions: maximum
[9] = system: resistant bacterial strains; conditions: overall, controlled clinical trials, oral or intravenous
[10] = system: polymorphonuclear leukocytes
[11] = system: anaerobic Bacteroides fragilis group of bacteria
[12] = system: anaerobic genus Fusobacterium
[13] = not given; remark: listed apart in the source
human macrophages = conditions: extracellular concentrations 0.125 to 1 μg/mL
[14] = system: human polymorphonuclear leukocytes; conditions: rapid passive diffusion

SMILES: C[C@@H]1O[C@@H]1P(=O)(O)O [Fosfomycin calcium monohydrate]
- pH of 0.4% solution (0.4% solution): 8.1-9.6
- solubility in water ([1]; calcium monohydrate): sparingly soluble in water
- intracellular concentration (IPEC-J2 cells): ~30 µg/mL

SMILES: C[C@@H]1O[C@@H]1P(=O)(O)O [Fosfomycin disodium]
- pH of 5% solution: 9.0-10.5
- solubility in water [1]: highly soluble in water
- bioavailability [2]: high bioavailability

SMILES: C[C@@H]1O[C@@H]1P(=O)(O)O.NC(CO)(CO)CO [Fosfomycin trometamol]
- pH of 5% solution: 3.5-5.5
- solubility in water [1]: highly soluble in water
- stability of granulate [3]: long-term stability

SMILES: C[C@@H](O)[C@H]1C(=O)N2C(C(=O)O)=C(S[C@@H]3CN[C@H](C(=O)Nc4cccc(C(=O)O)c4)C3)[C@H](C)[C@H]12 [ertapenem]
- extracellular concentration giving bactericidal intracellular concentrations [4]: ≥ 15 µg/mL

SMILES: C[C@@H]1O[C@@H]1P(=O)(O)O [fosfomycin, [(2R,3S)-3-methyloxiran-2-yl]phosphonic acid]
- activity against aerobic genera [5]: active
- activity against Peptostreptococcus [6]: active
- synergistic effect, share of tested strains ([7]; early studies, various antibiotic combinations): 70-100%
- synergy rates ([7]; subsequent more extensive studies): 36-74%
- activity against indole-positive Proteus spp., Klebsiella and Enterobacter spp. [8]: less active
- appearance of resistant bacterial strains (Pseudomonas aeruginosa): 15%
- appearance of resistant bacterial strains [9]: 3.0%
- concentration in polymorphonuclear leukocytes relative to extracellular fluid [10]: up to twice those of the extracellular fluid
- activity against Bacteroides fragilis group [11]: inactive
- activity against Fusobacterium [12]: active
- eosinophilia ([13]; in vivo): 0.2%
- transient rashes (allergy) ([13]; in vivo): 0.3 % of cases
- transiently raised liver enzymes ([13]; systemically administered): 0.3 % of cases

SMILES: C[C@@H](O)[C@H]1C(=O)N2C(C(=O)O)=C(S[C@@H]3CN[C@H](C(=O)N(C)C)C3)[C@H](C)[C@H]12 [meropenem]
- cellular to extracellular concentration ratio (human macrophages): 3-12

SMILES: Cc1ncc([N+](=O)[O-])n1CCO [metronidazole]
- activity against Bacteroides fragilis group [11]: active
- time for intracellular levels to approach equilibrium with extracellular levels [14]: ≤ 15 min
- activity against Fusobacterium [12]: active
